# Entries after “also recorded” stand apart in the source; their conditions may differ.
# What was measured:
# Chick embryo DRG neurons [1] = assay: morphological/MTT assay of neuronal survival; assay type: cell-based; details: HPLC fractions of cyclized/oxidized, scrambled and linear P7
# Experimental: (§1) Bioassays were performed as previously described (Manthorpe et al, "An automated colorimetric microassay for neuronotrophic factors", Dev. Brain Res. 25:191-198 (1986)). Dorsal root ganglia were dissected from embryonic day 8 chick embryos and placed in calcium and magnesium-free Dulbecco's balanced salt solution on ice. […] During this incubation non-neuronal cells (Schwann cells, fibroblasts) more readily attached to the substratum leaving a supernatant containing an enriched neuronal population (80-85% neurons). […]
# (§2) The bioassays used for measuring the NGF agonist activity of the compounds of this invention were initially characterized using NGF as a control. […] The neurotrophic activity of NGF is most easily assessed by measuring the number of cells surviving and bearing neurites; however, the lack of neurites in peptide-supported cultures required the use of additional criteria to assess peptide effect. In order to more accurately determine neuronal survival, MTT was added to cultures at 16 hours and cultures assessed under phase contrast microscopy at 24 hours. Intact cells characteristic of surviving neurons which also contained blue MTT product were counted. […] In subsequent studies, activity of both peptides and NGF was assessed by counting the number of intact cells with blue MTT product (morphological/MTT assay) and by the automated MTT assay. […]
# Chick embryo DRG neurons [2] = assay: automated MTT neurotrophic assay; assay type: cell-based; details: HPLC fractions of ten cyclized/oxidized NGF 29-36 region peptides
# Experimental: as §1, §2
# Chick embryo DRG neurons [3] = assay: neurite outgrowth of cultured neurons; assay type: cell-based
# Experimental: as §1
# Neuronal survival and neurite outgrowth were assessed by a combination of morphological criteria described previously (Longo et al, "The in vitro biological effect of nerve growth factor is inhibited by synthetic peptides" Cell Regulation 1:189-195 (1990)) and an MTT calorimetric assay (Manthorpe et al., "An automated colorimetric microassay for neuronotrophic factors", Dev. Brain Res. 25:191-198 (1986)). […] The blue product can be quantitated by lysing cells with acid alcohol to solubilize the blue product and measuring overall optical density or by counting the number per area of intact surviving neurons with blue dye. […] For each peptide or NGF concentration, duplicate wells were counted in each bioassay and four values (two strips counted/well) averaged. In other assays, cells were lysed at 24 hours in acid alcohol and the MTT product was dissolved and quantified. […]
# NGF p75 receptor = target: T1, NGF p75 receptor (Gallus gallus, UniProt P18519); assay: survival-promoting activity in the presence of p75 antiserum (antibody 9651); assay type: cell-based, chick; details: p75 antiserum 1:100 final dilution; morphological/MTT assay
# T1 construct: Dorsal root ganglia were dissected from embryonic day 8 chick embryos; endogenous in cells; host or cells: primary neurons dissociated from embryonic day 8 chick dorsal root ganglia
# T1 sequence (P18519 20-416): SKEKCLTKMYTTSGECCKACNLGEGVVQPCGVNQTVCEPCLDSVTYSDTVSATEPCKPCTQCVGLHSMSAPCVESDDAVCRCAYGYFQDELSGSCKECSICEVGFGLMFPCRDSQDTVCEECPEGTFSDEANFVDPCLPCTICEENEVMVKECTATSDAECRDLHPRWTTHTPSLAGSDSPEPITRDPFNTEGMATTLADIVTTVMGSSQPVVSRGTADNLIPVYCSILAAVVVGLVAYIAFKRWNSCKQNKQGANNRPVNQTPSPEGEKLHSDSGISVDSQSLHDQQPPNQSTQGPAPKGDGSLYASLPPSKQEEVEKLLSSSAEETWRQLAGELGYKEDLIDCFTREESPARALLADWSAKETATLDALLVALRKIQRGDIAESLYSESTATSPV
# Experimental: Antiserum (antibody 9651) directed against the third and fourth cysteine rich repeats of the extracellular domain of mouse p75 was obtained as described in Huber (infra). […] Antiserum and control non-immune serum were tested at final dilutions of 1:100 in the presence of NGF or peptide.
# To determine if activity of P7 and P7-scrambled peptides was dependent on p75 , their activity in the presence of p75 antiserum (1:100 final dilution) which inhibits NGF neurotrophic activity was measured. […] In 15 bioassays, control background survival was 14±2% (S.E.) of the NGF maximum compared to a background in the presence of p75 antiserum of 13±2% in 5 of the same 15 assays.
Molecule,survival-promoting activity of P7 forms (in words) (Chick embryo DRG neurons [1]),survival-promoting activity (in words) (Chick embryo DRG neurons [2]),neurite outgrowth (in words) (Chick embryo DRG neurons [3]),"inhibition of survival-promoting activity by p75 antiserum, average over the three concentrations tested (NGF p75 receptor)"
IPenKGKEVCT [Peptide P7],showed activity; also recorded: significantly greater activity than P7-scrambled peptides,highest activity at the lowest concentrations; also recorded: greatest survival-promoting activity at the lowest concentration,continued to lack neurites,
"NGF: Mouse submaxillary β-NGF purified via 7S NGF (protein, UniProt P01139 122-241, looked up, Beta-nerve growth factor, Mouse submaxillary β-NGF purified via 7S NGF) Beta-nerve growth factor: SSTHPVFHMGEFSVCDSVSVWVGDKTTATDIKGKEVTVLAEVNINNSVFRQYFFETKCRASNPVESGCRGIDSKHWNSYCTTTHTFVKALTTDEKQAAWRFIRIDTACVCVLSRKATRRG",,,,40%

# — patent US5958875A, “Synthetic peptides derivatives with nerve growth factor-like neurotrophic activity” (The Regents of the University of California, priority 1996, dated 1999)
